Test results as given in patent publication US20150105252A1, “SUBSTITUTED PYRAZOLES AS HERBICIDES” (E I DU PONT DE NEMOURS AND COMPANY, priority 2013, published 2015).

Key:
barnyardgrass [1] = test: Test A preemergence; type: in vivo, Echinochloa crus-galli; settings: preemergence; for Barnyardgrass plant response rating (0 to 100 scale, 0 is no effect, 100 is complete control): visual injury approx. 10 days after treatment
In short: (§1)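 Greenhouse test in loam soil/sand blend; compounds formulated in non-phytotoxic solvent with surfactant, applied as preemergence directed soil spray or postemergence to plants 2–10 cm tall at one- to two-leaf stage. Injury rated visually versus untreated controls after approximately 10 days on a 0 (no effect) to 100 (complete control) scale.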

barnyardgrass [2] = test: Test A postemergence; type: in vivo, Echinochloa crus-galli
In short: as §1

crabgrass, large [3] = test: Test A postemergence; type: in vivo, Digitaria sanguinalis
In short: as §1

morningglory [4] = test: Test A postemergence; type: in vivo, Ipomoea spp.
In short: as §1

pigweed = test: Test A postemergence; type: in vivo, Amaranthus retroflexus
In short: as §1

corn = test: Test A postemergence; type: in vivo, Zea mays
In short: as §1

crabgrass, large [5] = test: Test C preemergence; type: in vivo, Digitaria sanguinalis
Excerpt: (§2) Seeds of plant species selected from blackgrass (Alopecurus myosuroides), ryegrass, Italian (Italian ryegrass, Lolium multiflorum), wheat (winter wheat, Triticum aestivum), galium (catchweed bedstraw, Galium aparine), corn (Zea mays), crabgrass, large (large crabgrass, Digitaria sanguinalis), foxtail, giant (giant foxtail, Setaria faberii), johnsongrass (Sorghum halepense), lambsquarters (Chenopodium album), morningglory (Ipomoea coccinea), nutsedge, yellow (yellow nutsedge, Cyperus esculentus), pigweed (redroot pigweed, Amaranthus retroflexus), ragweed (common ragweed, Ambrosia elation), soybean (Glycine max), barnyardgrass (Echinochloa crus-galli), oilseed rape (Brassica napus), waterhemp (common waterhemp, Amaranthus rudis), oat, wild (wild oat, Avena fatua), kochia (Kochia scoparia), Surinam grass (Brachiaria decumbens), foxtail, green (green foxtail, Setaria viridis), goosegrass (Eleusine indica), bromegrass, downy (downy bromegrass, Bromus tectorum), nightshade (eastern black nightshade, Solanum ptycanthum), cocklebur (common cocklebur, Xanthium strumarium), cupgrass, woolly (woolly cupgrass, Eriochloa villosa), bermudagrass (Cynodon dactylon), sunflower, (common oilseed sunflower, Helianthus annuus), Russian thistle (Salsola kali), and velvetleaf (Abutilon theophrasti) were planted into a blend of loam soil and sand and treated preemergence with test chemicals formulated in a non-phytotoxic solvent mixture which included a surfactant.
(§3) At the same time, plants selected from these crop and weed species and also chickweed (common chickweed, Stellaria media), canarygrass (littleseed canarygrass, Phalaris minor), and deadnettle (henbit deadnettle, Lamium amplexicaule), were planted in pots containing Redi-Earth® planting medium (Scotts Company, 14111 Scottslawn Road, Marysville, Ohio 43041) comprising spaghnum peat moss, vermiculite, wetting agent and starter nutrients and treated with postemergence applications of test chemicals formulated in the same manner. Plants ranged in height from 2 to 18 cm (1- to 4-leaf stage) for postemergence treatments. Treated plants and controls were maintained in a greenhouse for 13 to 15 days, after which time all species were compared to controls and visually evaluated. Plant response ratings, summarized in Table C, are based on a scale of 0 to 100 where 0 is no effect and 100 is complete control. A dash (-) response means no test result.

morningglory [6] = test: Test C preemergence; type: in vivo, Ipomoea coccinea
Excerpt: as §2, §3

nutsedge, yellow = test: Test C preemergence; type: in vivo, Cyperus esculentus
Excerpt: as §2, §3

barnyardgrass [7] = test: Test C preemergence; type: in vivo, Echinochloa crus-galli
Excerpt: as §2, §3

velvetleaf = test: Test C preemergence; type: in vivo, Abutilon theophrasti
Excerpt: as §2, §3

[8] = 125 g ai/ha, visual injury, 0 to 100 scale, approx. 10 days
[9] = 500 g ai/ha, visual injury after approx. 10 days, 0 to 100 scale (0 no effect, 100 complete control)
[10] = Postemergence, 500 g ai/ha, 0 to 100 scale (0 no effect, 100 complete control)
[11] = postemergence, 125 g ai/ha, about 10 days, visual rating on 0 to 100 scale (0 no effect, 100 complete control)
[12] = Preemergence, 4 g ai/ha, scale 0 to 100
[13] = Preemergence, 8 g ai/ha, scale 0 to 100
[14] = Preemergence, 16 g ai/ha, scale 0 to 100
[15] = preemergence, 31 g ai/ha, visual rating, scale 0 to 100 (0 no effect, 100 complete control), 13 to 15 days
[16] = preemergence, 62 g ai/ha, scale 0 to 100 (0 no effect, 100 complete control), 13 to 15 days
[17] = preemergence, 125 g ai/ha, 13 to 15 days, scale 0 to 100, 0 = no effect, 100 = complete control
[18] = preemergence, 250 g ai/ha, scale 0 to 100, 0 is no effect, 100 is complete control
[19] = Postemergence, 125 g ai/ha, 0 to 100 scale, 0 no effect, 100 complete control

Structure (SMILES)	Barnyardgrass plant response rating (barnyardgrass [1]; [9])	Barnyardgrass plant response rating (barnyardgrass [2]; [10])	Barnyardgrass plant response rating (barnyardgrass [2]; [11])	Crabgrass, Large plant response rating (crabgrass, large [3]; [10])	Crabgrass, Large plant response rating (crabgrass, large [3]; [11])	Morningglory plant response rating (morningglory [4]; [10])	Morningglory plant response rating (morningglory [4]; [11])	Pigweed plant response rating (pigweed; [10])	Pigweed plant response rating (pigweed; [11])	Corn plant response rating (corn; [10])	Corn plant response rating (corn; [11])	Crabgrass, Large plant response rating (crabgrass, large [5]; [15])	Morningglory plant response rating (morningglory [6]; [15])	Nutsedge, Yellow plant response rating (nutsedge, yellow; [15])	Velvetleaf plant response rating (velvetleaf; [15])	Crabgrass, Large plant response rating (crabgrass, large [5]; [16])	Plant response rating, Crabgrass, Large (crabgrass, large [5]; [17])	Morningglory plant response rating (morningglory [6]; [16])	Plant response rating, Morningglory (morningglory [6]; [17])	Nutsedge, Yellow plant response rating (nutsedge, yellow; [16])	further results
CCOc1cc(C(=O)NCC(F)(F)F)nn1Cc1cc(C(F)(F)F)nn1C [Compound 140]	100	90	70	90	70	90	90	100	100	80	50	98	90	15	45	–	–	–	–	–	Barnyardgrass plant response rating (barnyardgrass [1]; [8]): 90; Plant response rating, Crabgrass, Large (crabgrass, large [5]; [12]): 45; Plant response rating, Crabgrass, Large (crabgrass, large [5]; [13]): 55; Plant response rating, Crabgrass, Large (crabgrass, large [5]; [14]): 75; Plant response rating, Morningglory (morningglory [6]; [12]): 5; Plant response rating, Morningglory (morningglory [6]; [13]): 5; Plant response rating, Morningglory (morningglory [6]; [14]): 95; Plant response rating, Nutsedge, Yellow (nutsedge, yellow; [12]): 0; Plant response rating, Nutsedge, Yellow (nutsedge, yellow; [13]): 15; Plant response rating, Nutsedge, Yellow (nutsedge, yellow; [14]): 0; Plant response rating, Barnyardgrass (barnyardgrass [7]; [12]): 0; Plant response rating, Barnyardgrass (barnyardgrass [7]; [13]): 5; Plant response rating, Barnyardgrass (barnyardgrass [7]; [14]): 30; Barnyardgrass plant response rating (barnyardgrass [7]; preemergence, 31 g ai/ha, scale 0 to 100 (0 no effect, 100 complete control), 13 to 15 days): 80; Plant response rating, Velvetleaf (velvetleaf; [12]): 0; Plant response rating, Velvetleaf (velvetleaf; [13]): 5; Plant response rating, Velvetleaf (velvetleaf; [14]): 10
O=C(NCC(F)(F)F)c1cc(CCF)n(Cc2ccnc(C(F)(F)F)c2)n1 [Compound 175]	100	90	70	90	90	90	80	100	100	90	60	100	95	10	55	100	100	100	100	55	Barnyardgrass plant response rating (barnyardgrass [1]; [8]): 100; Crabgrass, Large plant response rating (crabgrass, large [5]; [18]): 100; Morningglory plant response rating (morningglory [6]; [18]): 100; Plant response rating, Nutsedge, Yellow (nutsedge, yellow; [17]): 70; Nutsedge, Yellow plant response rating (nutsedge, yellow; [18]): 98; Barnyardgrass plant response rating (barnyardgrass [7]; [15]): 80; Barnyardgrass plant response rating (barnyardgrass [7]; [16]): 80; Plant response rating, Barnyardgrass (barnyardgrass [7]; [17]): 100; Barnyardgrass plant response rating (barnyardgrass [7]; [18]): 100; Velvetleaf plant response rating (velvetleaf; [16]): 98; Plant response rating, Velvetleaf (velvetleaf; [17]): 100; Velvetleaf plant response rating (velvetleaf; [18]): 100
O=C(NC1CC1)c1cc(CCF)n(Cc2ccnc(C(F)(F)F)c2)n1 [Compound 176]	100	90	60	90	80	90	90	100	100	80	40	98	65	5	30	95	100	98	98	5	Barnyardgrass plant response rating (0 to 100 scale, 0 is no effect, 100 is complete control) (barnyardgrass [1]; 125 g ai/ha): 80; Crabgrass, Large plant response rating (crabgrass, large [5]; [18]): 100; Morningglory plant response rating (morningglory [6]; [18]): 100; Plant response rating, Nutsedge, Yellow (nutsedge, yellow; [17]): 75; Nutsedge, Yellow plant response rating (nutsedge, yellow; [18]): 85; Barnyardgrass plant response rating (barnyardgrass [7]; [15]): 25; Barnyardgrass plant response rating (barnyardgrass [7]; [16]): 100; Plant response rating, Barnyardgrass (barnyardgrass [7]; [17]): 100; Barnyardgrass plant response rating (barnyardgrass [7]; [18]): 100; Velvetleaf plant response rating (velvetleaf; [16]): 75; Plant response rating, Velvetleaf (velvetleaf; [17]): 90; Velvetleaf plant response rating (velvetleaf; [18]): 100
CCNC(=O)c1cc(CCF)n(Cc2ccnc(C(F)(F)F)c2)n1 [Compound 178]	100	80	70	90	80	100	70	100	100	90	10	100	35	5	15	95	100	95	100	15	Barnyardgrass plant response rating (0 to 100 scale, 0 is no effect, 100 is complete control) (barnyardgrass [1]; 125 g ai/ha): 80; Plant response rating, Crabgrass, Large (crabgrass, large [5]; [14]): 30; Plant response rating, Morningglory (morningglory [6]; [14]): 15; Plant response rating, Nutsedge, Yellow (nutsedge, yellow; [14]): 0; Plant response rating, Nutsedge, Yellow (nutsedge, yellow; [17]): 35; Plant response rating, Barnyardgrass (barnyardgrass [7]; [14]): 0; Barnyardgrass plant response rating (barnyardgrass [7]; [15]): 10; Barnyardgrass plant response rating (barnyardgrass [7]; [16]): 60; Plant response rating, Barnyardgrass (barnyardgrass [7]; [17]): 100; Plant response rating, Velvetleaf (velvetleaf; [14]): 10; Velvetleaf plant response rating (velvetleaf; [16]): 55; Plant response rating, Velvetleaf (velvetleaf; [17]): 70
CCCc1cc(C(=O)NOC(C)C)nn1Cc1cc(C(F)(F)F)nn1C [Compound 203]	100	80	40	90	70	90	–	100	–	100	50	80	30	5	30	95	100	95	85	35	Barnyardgrass plant response rating (0 to 100 scale, 0 is no effect, 100 is complete control) (barnyardgrass [1]; 125 g ai/ha): 80; Morningglory plant response rating (morningglory [4]; [19]): 50; Pigweed plant response rating (pigweed; [19]): 90; Crabgrass, Large plant response rating (crabgrass, large [5]; [18]): 100; Morningglory plant response rating (morningglory [6]; [18]): 100; Plant response rating, Nutsedge, Yellow (nutsedge, yellow; [17]): 85; Nutsedge, Yellow plant response rating (nutsedge, yellow; [18]): 90; Barnyardgrass plant response rating (barnyardgrass [7]; [15]): 35; Barnyardgrass plant response rating (barnyardgrass [7]; [16]): 98; Plant response rating, Barnyardgrass (barnyardgrass [7]; [17]): 100; Barnyardgrass plant response rating (barnyardgrass [7]; [18]): 100; Velvetleaf plant response rating (velvetleaf; [16]): 98; Plant response rating, Velvetleaf (velvetleaf; [17]): 100; Velvetleaf plant response rating (velvetleaf; [18]): 100
